Results from US4269820A, “Safeguarded toxic chemical compositions containing effective emesis-inducing S-triazolo-[1,5-α]pyrimidine derivatives” (priority 1977, dated 1981).

Experiments:
in vivo = details: cynomolgus monkey, po
[1] = Time to emesis and survival after oral administration of pesticide with or without emetic (Example 27, Table 1); assay type: in vivo, Macaca fascicularis (Cynomolgus monkeys); details: for Animals in which emesis took place / Survival number after 14 days: 2 animals
[2] = in vivo; cited from earlier work
[3] = cited from earlier work

CCOC(=O)CC(SP(=S)(OC)OC)C(=O)OCC (stereo not drawn) [Malathion, S-[1,2-di(ethoxycarbonyl)ethyl] dimethyl phosphorothiolothionate]
LD50 (in vivo): 270 to 400 mg/kg
Animals in which emesis took place ([1]; Malathion only, 500 mg/kg): 1
Survival number after 14 days ([1]; Malathion only, 500 mg/kg): 0

CN1CCc2cccc3c2[C@H]1Cc1ccc(O)c(O)c1-3 [apomorphine]
Side effects of known emetic [2]: may induce protracted vomiting and shock
Stability in air [3]: unstable in air, oxidising readily

CCOP(=S)(OCC)Oc1ccc([N+](=O)[O-])cc1 [Parathion, diethyl 4-nitrophenyl phosphorothionate]
LD50 (in vivo): ~100 mg/kg
Time to emesis ([1]; Parathion only, 200 mg/kg): 1 h
Animals in which emesis took place ([1]; Parathion only, 200 mg/kg): 1
Survival number after 14 days ([1]; Parathion only, 200 mg/kg): 0
